Where a name gives a salt, the structure may show the parent alone.

Results on 22 molecules are retold here after US8697716B2, “Method of inhibiting C-KIT kinase” (Janssen Pharmaceutica NV, priority 2006, dated 2014).

The target of assay [1] is isolated kinase domain of the human c-kit receptor (Homo sapiens (Human), UniProt P10721). Kind of assay: c-Kit Fluorescence Polarization Kinase Assay. In kind it is biochemical. The note with it: 1 nM c-kit, 50 uM ATP, 45 minutes at room temperature; uncertainty +10%. As for the experimental part: c-Kit Fluorescence Polarization Kinase Assay
The c-kit assay utilized the fluorescein-labeled phosphopeptide and the anti-phosphotyrosine antibody included in the Panvera Phospho-Tyrosine Kinase Kit (Green) supplied by Invitrogen. When c-kit phosphorylated the poly Glu4Tyr, the fluorescein-labeled phosphopeptide was displaced from the anti-phosphotyrosine antibody by the phosphorylated poly Glu4Tyr, thus decreasing the FP value. The c-kit kinase reaction was incubated at room temperature for 45 minutes under the following conditions: 1 nM c-kit (ProQinase, lot SP005), 100 ug/mL poly Glu4Tyr, 50 uM ATP, 5 mM MgCl2, 1 mM DTT, 0.01% Tween-20, 1% DMSO or compound in […], pH 7.5. The kinase reaction was stopped with the addition of EDTA. The fluorescein-labeled phosphopeptide and the anti-phosphotyrosine antibody were added and incubated for 30 minutes at room temperature and fluorescence polarization was read. Data points were an average of triplicate samples. Inhibition and IC50 data analysis were done with GraphPad Prism using a non-linear regression fit with a multiparamater, sigmoidal dose-response (variable slope) equation.
In general terms: Fluorescence polarisation rises when a labelled molecule tumbles more slowly, as on binding a larger partner.

In a further assay the test system is BR-1 cells. Kind of assay: c-Kit BR-1 Assay (inhibition of BR-1 cell proliferation). It counts as cell-based. The note with it: Canis lupus familiaris; BR-1 dog mastocytoma line, constitutive-active mutant KIT; 72 hours, Cell TiterGlo.

isolated kinase domain of the human c-kit receptor, sequence (P10721 589-937): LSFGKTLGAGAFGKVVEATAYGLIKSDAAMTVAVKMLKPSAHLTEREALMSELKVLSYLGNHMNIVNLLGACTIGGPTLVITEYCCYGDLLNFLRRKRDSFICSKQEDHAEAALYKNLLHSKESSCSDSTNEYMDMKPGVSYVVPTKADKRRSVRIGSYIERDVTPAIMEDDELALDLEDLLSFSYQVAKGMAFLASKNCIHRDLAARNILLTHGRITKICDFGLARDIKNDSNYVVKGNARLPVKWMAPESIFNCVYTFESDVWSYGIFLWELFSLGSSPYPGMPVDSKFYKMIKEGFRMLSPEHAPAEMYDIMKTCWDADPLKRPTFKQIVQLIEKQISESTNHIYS
Procedure for BR-1 cells: Immediately following plating (time zero), 6 wells containing cells are treated with 100 μl of Promega Cell TiterGlo reagent and incubated 10 min with shaking. The intensity of the Cell TiterGlo signal (1 sec/well) is determined using a luminometer. The remaining cells are cultured 72 hours (37° C. and 5% CO2). Following the 72-hour growth interval, 100 μl of Promega Cell TiterGlo reagent is added to each well. The plates are incubated an additional 10 minutes with shaking and the intensity of the Cell TiterGlo signal (1 sec/well) is determined using a luminometer. Cell proliferation is defined by the difference between the time zero and time 72 hour signals.

For the molecule `N#Cc1c[nH]c(C(=O)Nc2ccc(C3CCN(C(=O)CCN4CCOCC4)CC3)cc2C2=CCCCC2)n1` [Compound 8, 4-Cyano-1H-imidazole-2-carboxylic acid{2-cyclohex-1-enyl-4-[1-(3-morpholin-4-yl-propionyl)-piperidin-4-yl]-phenyl}-amide], the IC50 – broadly, the concentration that inhibits the measured activity by half – in assay [1] came out at 42 nM. Still for that read-out and setting: next, `CN1CCN(c2ccc(NC(=O)c3ccc(C#N)o3)c(C3=CCCCC3)c2)CC1` [Compound 11, 5-Cyano-furan-2-carboxylic acid [2-cyclohex-1-enyl-4-(4-methyl-piperazin-1-yl)-phenyl]-amide]: 150 nM; `CN1CCN(c2ccc(NC(=O)c3ccc(C#N)o3)c(C3=CCOCC3)c2)CC1` [Compound 12]: above 250 nM. Still for that read-out and setting: next, `N#Cc1c[nH]c(C(=O)Nc2ccc(C3CCNCC3)cc2C2=CCCCC2)c1` [Compound 13, 4-Cyano-1H-pyrrole-2-carboxylic acid (2-cyclohex-1-enyl-4-piperidin-4-yl-phenyl)-amide trifluoroacetic acid salt]: 260 nM. Same read-out and setting: next, `N#Cc1c[nH]c(C(=O)Nc2ccc(C3CCNCC3)cc2C2=CCCCC2)n1` [Compound 14, 4-Cyano-1H-imidazole-2-carboxylic acid (2-cyclohex-1-enyl-4-piperidin-4-yl-phenyl)-amide trifluoroacetic acid salt]: 71 nM; `CC(=O)N1CCC(c2ccc(NC(=O)c3nc(C#N)c[nH]3)c(C3=CCCCC3)c2)CC1` [Compound 16, 4-Cyano-1H-imidazole-2-carboxylic acid [4-(1-acetyl-piperidin-4-yl)-2-cyclohex-1-enyl-phenyl]-amide]: 57 nM; `N#Cc1c[nH]c(C(=O)Nc2ccc(C3CCN(Cc4ccccn4)CC3)cc2C2=CCCCC2)n1` [Compound 21, 4-Cyano-1H-imidazole-2-carboxylic acid [2-cyclohex-1-enyl-4-(1-pyridin-2-ylmethyl-piperidin-4-yl)-phenyl]-amide trifluoroacetic acid salt]: 50 nM. `N#Cc1c[nH]c(C(=O)Nc2ccc(C3CCN(CCO)CC3)cc2C2=CCCCC2)n1` [Compound 26, 4-Cyano-1H-imidazole-2-carboxylic acid{2-cyclohex-1-enyl-4-[1-(2-hydroxy-ethyl)-piperidin-4-yl]-phenyl}-amide trifluoroacetic acid salt] came in with an IC50 in assay [1] of 26 nM. Still for that read-out and setting: next, `N#CCCN1CCC(c2ccc(NC(=O)c3nc(C#N)c[nH]3)c(C3=CCCCC3)c2)CC1` [Compound 27, 4-Cyano-1H-imidazole-2-carboxylic acid {4-[1-(2-cyano-ethyl)-piperidin-4-yl]-2-cyclohex-1-enyl-phenyl}-amide trifluoroacetic acid salt]: 80 nM. Still for that read-out and setting: next, `N#Cc1c[nH]c(C(=O)Nc2ccc(C3CCS(=O)(=O)CC3)cc2C2=CCCCC2)n1` [Compound 35, 4-Cyano-1H-imidazole-2-carboxylic acid [2-cyclohex-1-enyl-4-(1,1-dioxo-hexahydro-1λ^6-thiopyran-4-yl)-phenyl]-amide]: 73 nM; `CC(=O)N1CCC(c2ccc(NC(=O)c3nc(C#N)c[nH]3)c(C3=CCS(=O)(=O)CC3)c2)CC1` [Compound 37, 4-Cyano-1H-imidazole-2-carboxylic acid [4-(1-acetyl-piperidin-4-yl)-2-(1,1-dioxo-1,2,3,6-tetrahydro-1λ^6-thiopyran-4-yl)-phenyl]-amide]: above 250 nM. The molecule `CN(C)CC(=O)N1CCC(c2ccc(NC(=O)c3nc(C#N)c[nH]3)c(C3=CCCCC3)c2)CC1` [Compound 38, 4-Cyano-1H-imidazole-2-carboxylic acid{2-cyclohex-1-enyl-4-[1-(2-dimethylamino-acetyl)-piperidin-4-yl]-phenyl}-amide] showed an IC50 in the assay on BR-1 cells of 90 nM. The same measure, in the same setting: next, `CS(=O)(=O)CCN1CCC(c2ccc(NC(=O)c3nc(C#N)c[nH]3)c(C3=CCCCC3)c2)CC1` [Compound 40, 4-Cyano-1H-imidazole-2-carboxylic acid{2-cyclohex-1-enyl-4-[1-(2-methanesulfonyl-ethyl)-piperidin-4-yl]-phenyl}-amide]: 250 nM. In assay [1], `N#Cc1c[nH]c(C(=O)Nc2ccc(C3CCN(C(=O)c4cc[n+]([O-])cc4)CC3)cc2C2=CCCCC2)n1` [Compound 41, 4-Cyano-1H-imidazole-2-carboxylic acid {2-cyclohex-1-enyl-4-[1-(1-oxy-pyridine-4-carbonyl)-piperidin-4-yl]-phenyl}-amide] displayed an IC50 of 35 nM. Still for that read-out and setting: next, `N#Cc1c[nH]c(C(=O)Nc2ccc(C3CCN(CC(=O)O)CC3)cc2C2=CCCCC2)n1` [Compound 47, (4-{4-[(4-Cyano-1H-imidazole-2-carbonyl)-amino]-3-cyclohex-1-enyl-phenyl}-piperidin-1-yl)-acetic acid trifluoroacetic acid salt]: 100 nM; `CC(C)(N)CC(=O)N1CCC(c2ccc(NC(=O)c3nc(C#N)c[nH]3)c(C3=CCCCC3)c2)CC1` [Compound 48, 4-Cyano-1H-imidazole-2-carboxylic acid {4-[1-(3-amino-3-methyl-butyryl)-piperidin-4-yl]-2-cyclohex-1-enyl-phenyl}-amide trifluoroacetic acid salt]: 5 nM; `C[C@@H]1CC(c2ccc(NC(=O)c3ncc(C#N)[nH]3)c(C3=CCCCC3)c2)C[C@H](C)N1` (stereo partly drawn) [Compound 51a, 5-Cyano-1H-imidazole-2-carboxylic acid [2-cyclohex-1-enyl-4-(cis-2,6-dimethyl-piperidin-4-yl)-phenyl]-amide bis trifluoroacetic acid salt]: 4.3 nM. In assay [1], `N#Cc1cnc(C(=O)Nc2ccc(C3CCN(C(=O)[C@H](O)CO)CC3)cc2C2=CCCCC2)[nH]1` [Compound 52, 5-Cyano-1H-imidazole-2-carboxylic acid{2-cyclohex-1-enyl-4-[1-(R)-(+)-(2,3-dihydroxy-propionyl)-piperidin-4-yl]-phenyl}-amide] had an IC50 of 8 nM. In the assay on BR-1 cells, `CC1(C)CC=C(c2nc(C3CCNCC3)ccc2NC(=O)c2nc(C#N)c[nH]2)CC1` [Compound 54, 4-Cyano-1H-imidazole-2-carboxylic acid [6-(4,4-dimethyl-cyclohex-1-enyl)-1′,2′,3′,4′,5′,6′-hexahydro-[2,4′]bipyridinyl-5-yl]-amide trifluoroacetic acid salt] showed an IC50 of 900 nM.

Consider `CN(C)CC(=O)N1CCC(c2ccc(NC(=O)c3nc(C#N)c[nH]3)c(C3=CCC(C)(C)CC3)n2)CC1` [Compound 55, 4-Cyano-1H-imidazole-2-carboxylic acid [1′-(2-dimethylamino-acetyl)-6-(4,4-dimethyl-cyclohex-1-enyl)-1′,2′,3′,4′,5′,6′-hexahydro-[2,4′]bipyridinyl-5-yl]-amide trifluoroacetic acid salt], for which the figures for the IC50 (in assay [1]; with BR-1 cells) were 12 nM and 250 nM, respectively. The corresponding values for `CC1(C)CC=C(c2nc(C3CCN(CCS(C)(=O)=O)CC3)ccc2NC(=O)c2nc(C#N)c[nH]2)CC1` [Compound 56, 4-Cyano-1H-imidazole-2-carboxylic acid [6-(4,4-dimethyl-cyclohex-1-enyl)-1′-(2-methanesulfonyl-ethyl)-1′,2′,3′,4′,5′,6′-hexhydro-[2,4′]bipyridinyl-5-yl]-amide trifluoroacetic acid salt] are 39 nM and 500 nM. On to `CS(=O)(=O)CCN1CCC(c2ccc(NC(=O)c3ncc(C#N)[nH]3)c(C3=CCCCC3)n2)CC1` [Compound 58, 5-Cyano-1H-imidazole-2-carboxylic acid [6-cyclohex-1-enyl-1′-(2-methanesulfonyl-ethyl)-1′,2′,3′,4′,5′,6′-hexahydro-[2,4′]bipyridinyl-5-yl]-amide], for which the IC50 in the assay on BR-1 cells stood at 1000 nM.
